# Results: US9018231B2, “Sulfone compounds as 5-HT6 receptor ligands” (Suven Life Sciences Limited, priority 2010, dated 2015)
# Like-named read-outs stand apart in the source and are kept apart here.
# Legend:
# [1] = biological target: T1, recombinant human 5-HT6 receptor (Homo sapiens, UniProt P50406); experiment: Determination of Kb values for 5-HT6 receptor (CHO pCRE-Luc reporter assay); type: cell-based; settings: antagonism of 10 uM serotonin, luciferase reporter, CHO cells
# T1 construct: expressed in transfected cells
# Description: A stable CHO cell line expressing recombinant human 5-HT6 receptor and pCRE-Luc reporter system was used for cell-based assay. The assay offers a non-radioactive based approach to determine binding of a compound to GPCRs. In this specific assay, the level of intracellular cyclic AMP which is modulated by activation or inhibition of the receptor is measured. The recombinant cells harbor luciferase reporter gene under the control of cAMP response element.
# The above cells were grown in 96 well clear bottom white plates in Hams F12 medium containing 10% fetal bovine serum (FBS). Prior to the addition of compounds and/or agonist, cells were serum starved overnight. Increasing concentrations of test compounds were added along with 10 uM serotonin in Hams F12 medium containing 1% dialyzed FBS to the cells. The incubation was continued at 37° C. in CO2 incubator for 4 hours. Medium was removed and cells were washed with phosphate buffered saline. The cells were lysed and luciferase activity was measured in a Luminometer. Luminescence units were plotted against the compound concentrations using Graphpad software. EC50 values of the compounds were defined as the concentration required reducing the luciferase activity by 50%. The Kb values were calculated by feeding the concentration of the agonist used in the assay and its EC50 value in the same software.
# [2] = Rodent pharmacokinetic study; type: in vivo; settings: Wistar/Male rat, 10 mg/kg; for AUCt / Cmax / T1/2 / Tmax / AUC(0-t) / half-life: vehicle water (Ex. 8: 50% PEG 400); for bioavailability: Oral vs Intravenous
# Description: Male wistar rats (230-280 grams) obtained from NIN (National Institute of Nutrition, Hyderabad, India) were used as an experimental animal. Three to five animals were housed in each cage. Animals were kept fasted over night and maintained on a 12 hours light/dark cycle. Three rats were dosed NCE (10 mg/Kg) orally and intravenously on day 0 and day 2.
# At each time point blood was collected by jugular vein. Plasma was stored frozen at −20° C. until analysis. The concentrations of the NCE compound in plasma were determined using LC-MS/MS method. Schedule time points: Pre dose 0.25, 0.5, 1, 1.5, 2, 3, 4, 6, 8, 10, 12 and 24 hours after dosing (n=3). The NCE compounds were quantified in plasma by validated LC-MS/MS method using solid phase extraction technique. NCE compounds were quantified in the calibration range of 2-2000 ng/mL in plasma. Study samples were analyzed using calibration samples in the batch and quality control samples spread across the batch.
# Pharmacokinetic parameters Cmax, Tmax, AUCt, T1/2 and Bioavailability were calculated by non-compartmental model using software WinNonlin version 5.1.
# [3] = Object recognition task model; type: in vivo; settings: rat, 10 mg/kg, p.o.
# Description: The cognition-enhancing properties of compounds of this invention were estimated using a model of animal cognition: the object recognition task model.
# Male Wister rats (230-280 grams) obtained from N.I.N. (National Institute of Nutrition, Hyderabad, India) was used as experimental animals. Four animals were housed in each cage. Animals were kept on 20% food deprivation before one day and given water ad libitum throughout the experiment and maintained on a 12 hours light/dark cycle. Also the rats were habituated to individual arenas for 1 hour in the absence of any objects.
# One group of 12 rats received vehicle (1 mL/Kg) orally and another set of animals received compound of the formula (I) either orally or i.p., before one hour of the familiar (T1) and choice trial (T2).
# The experiment was carried out in a 50×50×50 cm open field made up of acrylic. In the familiarization phase, (T1), the rats were placed individually in the open field for 3 minutes, in which two identical objects (plastic bottles, 12.5 cm height×5.5 cm diameter) covered in yellow masking tape alone (a1 and a2) were positioned in two adjacent corners, 10 cm. from the walls. After 24 hours of the (T1) trial for long-term memory test, the same rats were placed in the same arena as they were placed in T1 trial. Choice phase (T2) rats were allowed to explore the open field for 3 minutes in presence of one familiar object (a3) and one novel object (b) (Amber color glass bottle, 12 cm high and 5 cm in diameter). Familiar objects presented similar textures, colors and sizes. During the T1 and T2 trial, explorations of each object (defined as sniffing, licking, chewing or having moving vibrissae whilst directing the nose towards the object at a distance of less than 1 cm) were recorded separately by stopwatch. Sitting on an object was not regarded as exploratory activity, however, it was rarely observed. T1 is the total time spent exploring the familiar objects (a1+a2). T2 is the total time spent exploring the familiar object and novel object (a3+b).
# The object recognition test was performed as described by Ennaceur, A., Delacour, J., 1988, A new one-trial test for neurobiological studies of memory in rats—Behavioural data, Behav. Brain Res., 31, 47-59.
# [4] = Water maze (scopolamine induced reversal); type: in vivo; settings: rat, p.o.
# Description: The water maze apparatus consisted of a circular pool (1.8 m diameter, 0.6 m high) constructed in black Perspex (TSE systems, Germany) filled with water (24±2° C.) and positioned underneath a wide-angled video camera to track animal. The 10 cm^2 perspex platform, lying 1 cm below the water surface, was placed in the centre of one of the four imaginary quadrants, which remained constant for all rats. The black Perspex used in the construction of the maze and platform offered no intramaze cues to guide escape behavior. By contrast, the training room offered several strong extramaze visual cues to aid the formation of the spatial map necessary for escape learning. An automated tracking system, [Videomot 2 (5.51), TSE systems, Germany] was employed. This program analyzes video images acquired via a digital camera and an image acquisition boards that determined path length, swim speed and the number of entries and duration of swim time spent in each quadrant of the water maze.
# [5] = in vivo; cited from earlier work
# T1 sequence (P50406 whole entry): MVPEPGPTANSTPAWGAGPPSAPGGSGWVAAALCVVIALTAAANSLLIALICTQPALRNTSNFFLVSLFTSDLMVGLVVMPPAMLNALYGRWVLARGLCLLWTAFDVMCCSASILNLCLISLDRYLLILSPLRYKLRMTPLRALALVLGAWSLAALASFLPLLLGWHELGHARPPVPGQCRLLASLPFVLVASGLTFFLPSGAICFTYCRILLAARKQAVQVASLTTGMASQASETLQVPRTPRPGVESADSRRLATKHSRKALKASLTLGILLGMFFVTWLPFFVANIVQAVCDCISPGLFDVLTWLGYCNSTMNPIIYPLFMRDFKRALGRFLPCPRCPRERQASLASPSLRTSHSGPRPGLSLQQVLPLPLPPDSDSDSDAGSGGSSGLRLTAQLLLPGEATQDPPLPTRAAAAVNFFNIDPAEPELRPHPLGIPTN
structure (smiles),measurement,setting,value
"Cc1ccc(S(=O)(=O)c2c[nH]c3cc(Cl)ccc23)cc1NC1CCN(C)CC1 [Example 1, N-[2-methyl-5-(6-chloro-1H-indole-3-ylsulfonyl)phenyl]-N-(1-methypiperidin-4-yl)amine]",Kb,[1],1.55 nM
same,AUCt,[2]; Intravenous,2484 ± 853 ng·h/mL
same,Cmax,[2]; Intravenous,1644 ± 582 ng/mL
same,T1/2,[2]; Intravenous,5.23 ± 2.08 h
same,Tmax,[2]; Intravenous,0.14 ± 0.10 h
same,bioavailability,[2],31 ± 12%
same,AUCt,[2]; Oral,750 ± 363 ng·h/mL
same,Cmax,[2]; Oral,128 ± 13 ng/mL
same,T1/2,[2]; Oral,6.38 ± 1.38 h
same,Tmax,[2]; Oral,3.42 ± 2.74 h
same,"Exploration time mean ± S.E.M, Familiar object",[3],10.10 ± 1.84 s
same,"Exploration time mean ± S.E.M, Novel object",[3],13.22 ± 2.00 s
same,Inference,[3],Active
same,Scopolamine Induced Reversal,[4],"≦10 mg/kg, p.o."
"COc1ccc(S(=O)(=O)c2c[nH]c3cc(Cl)ccc23)cc1NC1CCNCC1 [Example 16, N-(Piperidin-4-yl)-N-[2-methoxy-5-(6-chloro-1H-Indole-3-ylsulfonyl)phenyl] amine]",Kb,[1],0.22 nM
same,"Exploration time mean ± S.E.M, Familiar object",[3],8.10 ± 1.78 s
same,"Exploration time mean ± S.E.M, Novel object",[3],12.00 ± 1.84 s
same,Inference,[3],Active
same,Scopolamine Induced Reversal,[4],"≦10 mg/kg, p.o."
same,melting point,,208 to 208.9 °C
"COc1ccc(S(=O)(=O)c2c[nH]c3cc(Cl)ccc23)cc1NC1CCN(C)CC1 [Example 17, N-(1-Methylpiperidin-4-yl)-N-[2-methoxy-5-(6-chloro-1H-Indole-3-ylsulfonyl)phenyl] amine]",Kb,[1],0.82 nM
same,AUC(0-t),"[2]; plasma, Intravenous",5730 ± 2620 ng·h/mL
same,half-life,"[2]; plasma, Intravenous",232 ± 5.4 min
same,Cmax,"[2]; plasma, Intravenous, read-out: Cmax",4220 ± 2250 ng/mL
same,Tmax,"[2]; plasma, Intravenous, read-out: Tmax",0.08 h
same,bioavailability,"[2]; plasma, read-out: Bioavailability",24 ± 2%
same,AUC(0-t),"[2]; plasma, Oral",1430 ± 734 ng·h/mL
same,half-life,"[2]; plasma, Oral",112 ± 5.4 min
same,Cmax,"[2]; plasma, Oral, read-out: Cmax",379 ± 160 ng/mL
same,Tmax,"[2]; plasma, Oral, read-out: Tmax",3 h
same,melting point,,88.6 to 91.6 °C
"COc1ccc(NS(=O)(=O)c2sc3ccc(Cl)cc3c2C)cc1N1CCNCC1 [SB-271046, 5-Chloro-N-(4-methoxy-3-piperazin-1-ylphenyl)-3-methyl-2-benzothiophenesulfonamide]",activity in animal tests related to positive or negative symptoms of schizophrenia,[5],inactive
